Data from ChEMBL document CHEMBL1201862, “PubChem BioAssay data set” (2004).
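In this assay, cells in 96-well plates receive the compound at five concentrations for 48 hours. Endpoints are linearly interpolated between the surrounding concentrations. GI50 = concentration required for 50% inhibition of growth.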 Calls of active or inactive are those of the source. No stated cut-off is given here; in the data, active = GI50 up to about 1.1 µM and inactive = higher.

Assays:
Assay in all cases: NCI tumour cell line growth inhibition, 48 h
DLD-1 = test system: DLD-1
EKVX = test system: EKVX
LXFL 529 = test system: LXFL 529
A549 = test system: A549
COLO 205 = test system: COLO 205
SF-295 = test system: SF-295
CCRF-CEM = test system: CCRF-CEM
HOP-62 = test system: HOP-62
OVCAR-3 = test system: OVCAR-3
DMS-114 = test system: DMS-114
HCT-116 = test system: HCT-116
SN12C = test system: SN12C
SK-MEL-28 = test system: SK-MEL-28
XF498 = test system: XF498
HCT-15 = test system: HCT-15
SW-620 = test system: SW-620
NCI-H226 = test system: NCI-H226
786-0 = test system: 786-0
HL-60 = test system: HL-60
UACC-257 = test system: UACC-257
KM-20L2 = test system: KM-20L2
UACC-62 = test system: UACC-62
OVCAR-8 = test system: OVCAR-8
UO-31 = test system: UO-31
RPMI-8226 = test system: RPMI-8226
SF-539 = test system: SF-539
KM12 = test system: KM12
NCI-H460 = test system: NCI-H460
K562 = test system: K562
NCI-H23 = test system: NCI-H23
M19-MEL = test system: M19-MEL
DMS-273 = test system: DMS-273
CAKI-1 = test system: CAKI-1
Malme-3M = test system: Malme-3M
U-251 = test system: U-251
RXF 393 = test system: RXF 393
HCC 2998 = test system: HCC 2998
ACHN = test system: ACHN
HOP-92 = test system: HOP-92
OVCAR-4 = test system: OVCAR-4
HT-29 = test system: HT-29
SK-MEL-2 = test system: SK-MEL-2
HOP-18 = test system: HOP-18
MOLT-4 = test system: MOLT-4
SNB-75 = test system: SNB-75
SNB-19 = test system: SNB-19
NCI-H522 = test system: NCI-H522
SR = test system: SR
M14 = test system: M14
SF-268 = test system: SF-268

Measured: GI50

CCOC1=C2N=C(Cc3ccccc3F)N=C2C(=O)c2ccccc21
inactive: DLD-1 > 100 µM | EKVX > 100 µM | LXFL 529 > 100 µM | A549 > 100 µM | COLO 205 > 100 µM | SF-295 > 100 µM | CCRF-CEM > 100 µM | HOP-62 > 100 µM | OVCAR-3 > 100 µM | DMS-114 > 100 µM | HCT-116 > 100 µM | SN12C > 100 µM | SK-MEL-28 > 100 µM | XF498 > 100 µM | SW-620 > 100 µM | NCI-H226 > 100 µM | 786-0 > 100 µM | HL-60 > 100 µM | UACC-257 > 100 µM | KM-20L2 > 100 µM | UACC-62 > 100 µM | OVCAR-8 > 100 µM | UO-31 > 100 µM | RPMI-8226 > 100 µM | SF-539 > 100 µM | KM12 > 100 µM | NCI-H460 > 100 µM | K562 > 100 µM | NCI-H23 > 100 µM | M19-MEL > 100 µM | DMS-273 > 100 µM | CAKI-1 > 100 µM | Malme-3M > 100 µM | U-251 > 100 µM | RXF 393 > 100 µM | HCC 2998 > 100 µM | ACHN > 100 µM | HOP-92 > 100 µM | OVCAR-4 > 100 µM | HT-29 > 100 µM | SK-MEL-2 > 100 µM | HOP-18 > 100 µM | MOLT-4 > 100 µM | SNB-75 90.8 µM | SNB-19 > 100 µM | NCI-H522 > 100 µM | SR > 100 µM | M14 > 100 µM | SF-268 > 100 µM
> 100 µM: HCT-15
